Usually IC50 stands for the midpoint of a concentration-inhibition curve. A high value points to weaker potency in that assay. For orientation: Ki means a measure of affinity in units of concentration, obtained from inhibition or displacement. The low end stands for tighter binding, the high end for weaker binding.

Activity calls are given as the source filed them. No cut-off for these calls is given here.

The values that follow come from ChEMBL document CHEMBL2163339, “Discovery of potent inhibitors of human and mouse fatty acid amide hydrolases” (J Med Chem, 2012).

In the first assay the target is T1, Fatty-acid amide hydrolase 1 (Mus musculus, UniProt O08914).
T1 sequence (O08914 whole entry): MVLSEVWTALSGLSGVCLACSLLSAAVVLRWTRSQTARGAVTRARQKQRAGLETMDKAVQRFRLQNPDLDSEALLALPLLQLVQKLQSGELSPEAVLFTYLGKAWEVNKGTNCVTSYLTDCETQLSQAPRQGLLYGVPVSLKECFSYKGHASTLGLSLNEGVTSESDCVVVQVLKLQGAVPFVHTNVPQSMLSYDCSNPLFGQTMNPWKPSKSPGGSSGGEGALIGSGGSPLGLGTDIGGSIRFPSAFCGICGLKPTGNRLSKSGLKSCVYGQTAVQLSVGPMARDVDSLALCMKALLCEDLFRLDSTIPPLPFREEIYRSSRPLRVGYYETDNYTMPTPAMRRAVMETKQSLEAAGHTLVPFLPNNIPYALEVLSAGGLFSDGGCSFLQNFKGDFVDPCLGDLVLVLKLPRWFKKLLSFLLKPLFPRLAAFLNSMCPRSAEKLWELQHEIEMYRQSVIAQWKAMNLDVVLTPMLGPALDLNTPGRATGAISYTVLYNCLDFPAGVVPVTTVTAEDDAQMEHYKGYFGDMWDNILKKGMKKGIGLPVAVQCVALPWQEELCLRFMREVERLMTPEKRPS
In words: Inhibition of mouse FAAH isolated from brain homogenate using [3H-ethanolamine]AEA as substrate incubated for 20 mins prior to substrate addition measured after 15 mins by beta counting analysis.
Regarding `C#CCCCCCCCCCOC(=O)c1ccn(-c2cccc(OC(=O)NCCCC)c2)c1`, the half-inhibitory concentration (IC50) was more than 70 nM. With `Cc1oc(-c2cccc(OC(=O)NCCCCCCc3ccccc3)c2)cc1C(N)=O`, 18 nM corresponded to half-maximal inhibition (IC50) and the Ki was 4.8 nM. On to `COc1cccc(-c2c(C(=O)NCCCCCCc3ccccc3)cc(C)n2Cc2ccccc2)c1`, for which the IC50 was more than 200 nM. Compound `CCCCNC(=O)Oc1cccc(-n2ccc(C(N)=O)c2)c1` gave a half-inhibitory concentration (IC50) of 240 nM and an inhibition constant Ki of 60 nM. As to `CCCCNC(=O)Oc1cccc(-n2ccc(C(=O)OCCCCCCc3ccccc3)c2)c1`, the concentration for half-maximal inhibition (IC50) is more than 200 nM. The same measure, in the same setting: next, `CCCCNC(=O)Oc1cccc(-c2sc(C)cc2C(N)=O)c1`: more than 200 nM; `O=C(NC1CCCCC1)Oc1cccc(-n2ccc(C(=O)OCCCCCCc3ccccc3)c2)c1`: more than 50000 nM.

As to `NC(=O)c1ccn(-c2cccc(OC(=O)NCCOCCOc3ccc(F)cc3F)c2)c1`, the IC50 was 28 nM and the Ki was found to be 7 nM. `C#CCCCCCCCCCOC(=O)c1ccn(-c2cccc(OC(=O)NCCCCCCc3ccccc3)c2)c1` displayed an IC50 of more than 200 nM. Compound `NC(=O)c1ccn(-c2cccc(OC(=O)NCCOCCOc3ccccc3F)c2)c1` returned a half-inhibitory concentration (IC50) of 69 nM and an inhibitory constant (Ki) of 18 nM.

In turn, `CCCCNC(=O)Oc1cccc(-c2cc(C(N)=O)c(C)o2)c1` displayed a half-inhibitory concentration (IC50) of more than 200 nM. Same read-out and setting: next, `C#CCCCCCCCCCOC(=O)c1ccn(-c2cccc(OC(=O)NC3CCCCC3)c2)c1`: more than 10000 nM.

The target in another assay is T2, Fatty-acid amide hydrolase 1 (Mus musculus) (UniProt O08914).
T2 sequence (whole entry): T1 sequence (O08914 whole entry)
In words: Reversible inhibition of mouse FAAH isolated from brain homogenate using [3H-ethanolamine]AEA as substrate incubated for 20 mins prior to substrate addition measured after 18 hrs by […] method.
As to `O=C(CCCCCCc1ccccc1)c1ncc(-c2ccccn2)o1`, the inhibition result is “Active”.

For the compound `NC(=O)c1ccn(-c2cccc(OC(=O)NCCOCCOc3ccc(F)cc3F)c2)c1`, the inhibition result was “Active”.
